# Results as given in patent US12251382B2, “Substituted amino-pyrimidine compound for use in a method for treatment and prevention of multiple sclerosis” (Merck Patent GmbH, priority 2018, dated 2025).
# “Also recorded” adds a separate entry of the source.
# How the values were obtained:
# [1] = system: human patients suffering from relapsing multiple sclerosis (RMS); assay: Phase II RMS study: HRQoL SF-36 Physical Component Summary score; format: in vivo; settings: for Difference in LS means of CFB in PCS score vs placebo: week 24, MMRM
# Protocol: Analysis of Primary Endpoint
# Primary and secondary efficacy endpoints were analysed based on the modified intention-to-treat (mITT) analysis set, consisting of all randomized patients with at least one available baseline and one post-baseline MRI assessment. […] For each endpoint, rate ratio (RR; null-hypothesis RR=1.0) adjusted for baseline disease activity was reported together with associated 95% CI and p-value. The T2 lesion endpoint was analysed similarly. Dose-response relationships between evobrutinib treatment dose and primary and key secondary endpoints were assessed for linear and monotonic trend. The analysis of CFB in cube root of volume of T2 lesions at Week 24 was based on a mixed-effect model for repeated measures, with fixed effects for treatment, week of visit, and treatment-by-week interaction, random effect for subject, and adjustment for baseline cube root of lesion volume. CFB in SF-36 score at Week 24 was analysed similarly. Descriptive statistics were used to further describe the study outcomes.
# [2] = system: B cells; settings: in vitro and ex vivo; cited from earlier work
# [3] = Phase I Part 2: plasma pharmacokinetics Day 1 and Day 14 of once daily dosing; format: in vivo, human; settings: for MRT: human, plasma, oral
# Protocol: To test dose proportionality, PK parameters were analyzed graphically as AUC/dose and Cmax/dose and via a power model (PK parameter=α*dose^β) approach with log-transformed PK parameters as the dependent variable and log-transformed dose as the independent variable.
# [4] = Phase I Holter ECG assessment and concentration-QTcF analysis; format: in vivo, human; settings: for Mean ΔΔQTcF: 100 mg dose group (n=6); for Predicted mean ΔΔQTcF: linear mixed model
# Protocol: Holter ECG recordings of 24 h duration were performed on Day 1 in Parts 1 and 2 of the study using digital 12-lead Holter devices (GI M12R, Manlius, N.Y.) and analyzed in the Quintiles central ECG laboratory. Ten second 12-lead ECGs were extracted in triplicate using Antares ECG extraction software (version 2.15.1.0, AMPS-LLC, New York, N.Y.) for each PK time point (predose and 0.25, 0.5, 1.0, 1.5, 2, 2.5, 3, 4, 5, 6, 8, 12, 16, 24 h postdose) within a −5 to 0 minute window prior to and a 5 minute window after each sampling time point. The quality of extracted ECG snapshots was checked by a Holter Associate/Specialist using the Anatares quality control review interface. The mean QT and RR values from the triplicate ECGs were used to calculate QTcF for each time point.
# The dataset consisted of Day 1 ECG and PK data from all subjects in Parts 1 and 2 of the study.
# Model derived predicted mean ΔΔQTcF was calculated for the geometric mean Cmax of each dose cohort. Two-sided 90% CIs of the estimate were determined using bootstrapping (1,000 resamples). By-time point analysis of actual values and change from baseline was performed for QTcF. Mean ΔΔQTcF with an associated 90% CI was summarized by time point for each dose cohort.
# [5] = Clinical trial of relative bioavailability of tablet vs powder-in-capsule incl. food effect in healthy volunteers; format: in vivo, human; settings: oral administration in proximity in time to food (fed vs fasted)
# [6] = multiple-dose study Day 1, 25 mg, geometric mean
# [7] = multiple-dose study Day 1, 75 mg, geometric mean
# [8] = multiple-dose study Day 1, 200 mg, geometric mean
# [9] = multiple-dose study Day 14, 25 mg once daily, geometric mean
# [10] = multiple-dose study Day 14, 75 mg once daily, geometric mean
# [11] = multiple-dose study Day 14, 200 mg once daily, geometric mean
smiles,measurement,setting,value
"C=CC(=O)N1CCC(CNc2ncnc(N)c2-c2ccc(Oc3ccccc3)cc2)CC1 [Evobrutinib, 1-(4-(((6-amino-5-(4-phenoxyphenyl)pyrimidin-4-yl)amino)methyl)piperidin-1-yl)prop-2-en-1-one]","Change in SF-36 PCS score from baseline to week 24, Mean ± SD",[1]; 25 mg QD,0.8 ± 5.93
same,"Change in SF-36 PCS score from baseline to week 24, Median",[1]; 25 mg QD,0.3
same,Difference in LS means of CFB in PCS score vs placebo,[1]; 25 mg QD,1.73
same,"Change in SF-36 PCS score from baseline to week 24, Mean ± SD",[1]; 75 mg BID,1.1 ± 5.22
same,"Change in SF-36 PCS score from baseline to week 24, Median",[1]; 75 mg BID,1.3
same,Difference in LS means of CFB in PCS score vs placebo,[1]; 75 mg BID,1.93
same,"Change in SF-36 PCS score from baseline to week 24, Mean ± SD",[1]; 75 mg QD,1.5 ± 7.09
same,"Change in SF-36 PCS score from baseline to week 24, Median",[1]; 75 mg QD,0.6
same,Difference in LS means of CFB in PCS score vs placebo,[1]; 75 mg QD,1.95
same,"Change in SF-36 PCS score from baseline to week 24, Mean ± SD","[1]; 75 mg QD, listed as evobrutinib",1.5±7.09
same,B-cell activation and maturation,[2],inhibits B-cell activation and maturation from naïve to antigen-activated B cells
same,Dose proportionality of AUC and Cmax,"[3]; 25-500 mg single dose, 25-200 mg once daily multiple dose",demonstrated following multiple dosing of 25-200 mg; also recorded: dose-proportional over a 25-500 mg single-dose range and a 25-200 mg once daily multiple-dose range
same,Time dependency of PK,[3]; 14 days repeated daily dosing,no time dependency
same,MRT,"[3]; 25 mg, multiple-dose study Day 1, 25 mg, geometric mean",1.66 h
same,MRT,"[3]; 25 mg, multiple-dose study Day 14, 25 mg once daily, geometric mean",1.81 h
same,MRT,"[3]; 75 mg, multiple-dose study Day 1, 75 mg, geometric mean",1.67 h
same,MRT,"[3]; 75 mg, multiple-dose study Day 14, 75 mg once daily, geometric mean",1.79 h
same,MRT,"[3]; 200 mg, multiple-dose study Day 1, 200 mg, geometric mean",1.72 h
same,MRT,"[3]; 200 mg, multiple-dose study Day 14, 200 mg once daily, geometric mean",1.92 h
same,AUC0−∞,[3]; [6],123 ng·h/mL
same,Cmax,[3]; [6],99.7 ng/mL
same,T1/2,[3]; [6],1.70 h
same,AUC0−∞,[3]; [7],325 ng·h/mL
same,CL/F,[3]; [7],3850 mL/min
same,Cmax,[3]; [7],254 ng/mL
same,T1/2,[3]; [7],1.86 h
same,AUC0−∞,[3]; [8],1110 ng·h/mL
same,Cmax,[3]; [8],797 ng/mL
same,T1/2,[3]; [8],2.49 h
same,AUC0−24h,[3]; [9],126 ng·h/mL
same,Cmax,[3]; [9],80.4 ng/mL
same,T1/2,[3]; [9],1.59 h
same,AUC0−24h,[3]; [10],345 ng·h/mL
same,Cmax,[3]; [10],252 ng/mL
same,T1/2,[3]; [10],2.29 h
same,AUC0−24h,[3]; [11],"1,210 ng * h/mL"
same,Cmax,[3]; [11],782 ng/mL
same,T1/2,[3]; [11],3.62 h
same,Accumulation with multiple dosing,"[3]; once daily, 14 days",no accumulation with multiple dosing; also recorded: without accumulation after multiple dosing
same,t½ after multiple dosing,[3]; range across 25-200 mg once daily,1.6 to 3.6 h
same,Geometric mean Cmax,"[4]; 25 mg dose group, Day 1, Parts 1 and 2",86.48 ng/mL
same,Geometric mean Cmax,"[4]; 25 mg dose group, Day 1, Parts 1 and 2, listed as evobrutinib",86.5 ng/mL
same,Geometric mean Cmax,"[4]; 50 mg dose group, Day 1",233.9 ng/mL
same,Geometric mean Cmax,"[4]; 75 mg dose group, Day 1",253.9 ng/mL
same,Mean ΔΔQTcF,[4]; 6 h post-dose,7.1 ms
same,Mean ΔΔQTcF,[4]; 8 h post-dose,5.6 ms
same,Mean ΔΔQTcF,[4]; 12 h post-dose,7.2 ms
same,Geometric mean Cmax,"[4]; 100 mg dose group, Day 1",308.6 ng/mL
same,Geometric mean Cmax,"[4]; 200 mg dose group, Day 1, Parts 1 and 2",689.2 ng/mL
same,Geometric mean Cmax,"[4]; 350 mg dose group, Day 1",845.9 ng/mL
same,Geometric mean Cmax,"[4]; 500 mg dose group, Day 1",1512.3 ng/mL
same,Geometric mean Cmax,"[4]; 500 mg dose group, Day 1, listed as evobrutinib","1,512 ng/ml"
same,Subjects with change from baseline in QTcF between 30 ms and 60 ms,"[4]; 2 of 81 subjects, both in the 200 mg dose group",2.5%
same,Change from baseline in QTcF,[4]; all ECGs,≤ 60 ms
same,Mean ΔΔQTcF over the range of doses evaluated,"[4]; all time points, with the exception of the 100 mg dose group",< 5 ms
same,Absolute QTcF value,"[4]; any dose group, any time point",≤ 450 ms
same,Predicted mean ΔΔQTcF,[4]; at geometric mean Cmax of 25 mg dose group,-0.78 ms
same,Predicted mean ΔΔQTcF,[4]; at geometric mean Cmax of 50 mg dose group,-0.82 ms
same,Predicted mean ΔΔQTcF,[4]; at geometric mean Cmax of 75 mg dose group,-0.82 ms
same,Predicted mean ΔΔQTcF,[4]; at geometric mean Cmax of 100 mg dose group,-0.84 ms
same,Predicted mean ΔΔQTcF,[4]; at geometric mean Cmax of 200 mg dose group,-0.94 ms
same,Predicted mean ΔΔQTcF,[4]; at geometric mean Cmax of 350 mg dose group,-0.98 ms
same,Predicted mean ΔΔQTcF,[4]; at geometric mean Cmax of 500 mg dose group,-1.16 ms
same,"Change from baseline in HR, PR and QRS values post-dose",[4]; categorical analysis,no clinically significant change from baseline
same,Slope of the relationship between placebo-adjusted ΔQTcF and concentration,"[4]; linear mixed-effects model, P=0.86",−0.00027 ms/ng per mL
same,Subjects with treatment-emergent T wave morphological abnormalities,[4]; one in the 50 mg and one in the 100 mg dose group,two
same,Effect on QTcF / exposure-effect relationship,[4]; single doses up to 500 mg,did not prolong QTcF; also recorded: No evidence of a significant exposure-effect relationship; also recorded: no prolongation of QTcF
same,Hysteresis between plasma concentration and ΔQTcF,[4]; statistical test based on ΔΔQTcF,no evidence of hysteresis
same,Effect of food on bioavailability,[5],significant increase in the bioavailability
